Measured values: patent publication US10858684B2, “Mutant microorganisms resistant to lactose killing” (Inbiose N.V., priority 2014, dated 2020)
Like-named read-outs stand apart in the source and are kept apart here.

Tested on: E. coli lactose permease expression cassette mutant strains
Test: Chloramphenicol resistance / MIC of strains with lactose permease translationally coupled to chloramphenicol resistance gene
Format: cell-based, Escherichia coli
Settings: for MIC: Escherichia coli
Excerpt: Two strains were constructed in which lactose permease was knockout out from the genome. In both strains a pSC101 plasmid containing a kanamycin resistance gene was transformed, with the difference that one of the plasmids contained a constitutively expressed lactose permease as described in Example 1 and 2, resulting in a reference strain MG1655ΔlacY pSC101_kan and the lacY_cat translational coupled strain MG1655ΔlacY pSC101_kan_lacYsynthetic_cat as described in Example 4 and FIG. 5. Both strains were grown in a minimal medium as described above at different chloramphenicol concentrations (between 0 and 30 mg/l).
This method is however limited by the expression of the beta galactosidase gene which becomes the rate limiting step for growth. Therefore, the expression of the lactose permease gene was measured via the above described translational coupling system described above. The minimal inhibition concentration (MIC) for chloramphenicol is indicative for the expression of the lactose permease gene and this was determined for each of the cassettes. The lowest MIC that still resulted into the same growth rate compared to the wild type was used as an indicator for the expression of the wild type lactose permease expression.

Q: With O=C(N[C@H](CO)[C@H](O)c1ccc([N+](=O)[O-])cc1)C(Cl)Cl [chloramphenicol] as the compound, how does the MIC (read-out: minimal inhibition concentration (MIC), cassettes with the lowest MIC that have the same growth rate as the wild type strain) read?
A: Its MIC is ~20 µg/mL.

Q: What about the MIC (read-out: minimal inhibition concentration (MIC), mutant strains with a slightly lower growth rate) of the same compound?
A: The MIC was 15 to 20 µg/mL.

Q: And the MIC (read-out: minimal inhibition concentration (MIC), mutant strains with equal or higher growth rate)?
A: The MIC was 20 to 80 µg/mL.

Q: And the “growth inhibition of reference strain MG1655ΔlacY pSC101_kan versus lacY_cat coupled strain” value (chloramphenicol 0 to 30 mg/l, minimal medium, 48 and 92 hours)?
A: The value was “inhibited at a lower chloramphenicol concentration than the mutant lacY_cat translational coupled strain”.
